Experimental data published in US8568814B2, “Lanthionine derivatives” (Ajinomoto Co., Inc., priority 2009, dated 2013).

Experiments:
human CaSR [1] = molecular target: T1, human CaSR (Homo sapiens, UniProt P41180, E1011Q); assay: Evaluation (1) and (2) of CaSR agonist activity (Ca2+ fluorescence in transfected 293E cells); format: cell-based; conditions: 293E cells transfected with hCaSR/pcDNA3.1; Calcium 4/5 Assay Kit; methods (1) and (2)
T1 construct: expressed in transfected cells; host or cells: 293E cells (EBNA1-expression HEK293 cells, ATCC No. CRL-10852), transient transfection of hCaSR/pcDNA3.1
T1 sequence (P41180 20-1078 E1011Q): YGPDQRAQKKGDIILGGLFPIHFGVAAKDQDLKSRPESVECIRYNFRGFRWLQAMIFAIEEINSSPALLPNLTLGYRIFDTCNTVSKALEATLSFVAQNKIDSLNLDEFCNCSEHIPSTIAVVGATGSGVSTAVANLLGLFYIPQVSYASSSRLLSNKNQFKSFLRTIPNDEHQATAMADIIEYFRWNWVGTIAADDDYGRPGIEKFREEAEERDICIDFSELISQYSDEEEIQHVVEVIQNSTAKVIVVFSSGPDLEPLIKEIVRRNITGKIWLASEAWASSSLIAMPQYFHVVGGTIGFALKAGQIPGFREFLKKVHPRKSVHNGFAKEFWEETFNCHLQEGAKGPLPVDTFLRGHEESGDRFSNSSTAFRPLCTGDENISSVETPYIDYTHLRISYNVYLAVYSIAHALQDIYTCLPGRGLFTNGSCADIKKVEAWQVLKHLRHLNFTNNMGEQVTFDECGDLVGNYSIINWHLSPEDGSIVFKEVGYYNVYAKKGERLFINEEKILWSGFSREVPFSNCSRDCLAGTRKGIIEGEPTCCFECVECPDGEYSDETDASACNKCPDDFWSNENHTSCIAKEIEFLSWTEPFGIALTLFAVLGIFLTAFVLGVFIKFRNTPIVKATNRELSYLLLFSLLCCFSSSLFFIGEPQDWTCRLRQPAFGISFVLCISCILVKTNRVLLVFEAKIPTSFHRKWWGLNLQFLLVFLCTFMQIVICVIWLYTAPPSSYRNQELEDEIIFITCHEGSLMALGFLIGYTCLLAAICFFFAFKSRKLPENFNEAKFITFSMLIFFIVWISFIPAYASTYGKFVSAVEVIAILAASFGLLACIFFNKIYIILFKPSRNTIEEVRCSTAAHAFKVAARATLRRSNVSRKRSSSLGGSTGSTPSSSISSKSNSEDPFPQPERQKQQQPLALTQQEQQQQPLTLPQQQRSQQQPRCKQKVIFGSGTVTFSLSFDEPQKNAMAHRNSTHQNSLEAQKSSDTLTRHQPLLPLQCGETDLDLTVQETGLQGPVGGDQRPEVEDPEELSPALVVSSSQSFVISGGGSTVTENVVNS
Method: (§1) 293E Cells (EBNA1-expression HEK293 cells, ATCC No. CRL-10852) were cultivated in DMEM/Ham's-F12 (3.15/ml Glucose-containing Dulbecco's modified Eagle medium; available from NAKARAI TESK Company) containing 10% fetal calf serum in the presence of 200 μg/ml of G418 (available from Genetisine Company). The cultured cells were inoculated in F25 flask at a density of 3×10^6 cells/10 ml, then the content of the flask was allowed to stand for 24 hours in a CO2 incubator (5% CO2, 37° C.), and then the human CaSR-expression plasmid hCaSR/pcDNA3.1 was transfected using a transfection agent Fugene 6 (available from Roche Company). After allowing the flask to stand in a CO2 incubator for 6 to 7 hours, the cells were recovered using 10% fetal calf serum-containing DMEM/Ham's-F12 and then inoculated in each well of a poly-D-lysine coat 96-well plate (BD-Biocoat) at a density of 70,000 cells/well.
(§2) After allowing the well plate to stand in a CO2 incubator for 24 hours, the culture medium was removed from each well of the 96-well plate to which the cells had been inoculated, and a solution of Ca^2+ fluorescent indicator Calcium 4 Assay Kit (available from Molecular Devices Company) in an Assay Buffer (containing 146 mM of NaCl, 5 mM of KCl, 1 mM of MgSO4, 1 mg/ml of Glucose, 20 mM of HEPES (pH 7.2), and 0.75 to 1.25 mM of CaCl2) in an amount of 200 μl/well was added to each well, and each well was allowed to stand at 37° C. for one hour and then at room temperature for 10 minutes to thus make the cells take the indicator.
(§3) To each well of the 96-well plate, a solution of a test compound in a 0.1% BSA-containing Assay Buffer in an amount of 50 μl/well was added, and the wells were inspected for any change in the intensity of fluorescent light rays emitted therefrom for 3 minutes using FLEX Station (available from Molecular Devices Company).
(§4) Method for the Calculation of EC50
(§5) The difference (RFU (Max-Min) between the maximum and minimum intensities of fluorescent light rays observed before and after the addition of the test compound were calculated according to the automatic calculation by the FLEX Station. In this respect, the activity rate of a test compound was calculated, while the RFU (Max-Min) value observed when adding a test compound in a maximum concentration was defined to be 100% and the RFU (Max-Min) value observed when using a 0.1% BSA-containing Assay Buffer free of any added test compound was defined to be 0%, then the curve-fitting was carried out using a software Xfit for spreadsheet or a GraphPad Prism to thus determine each corresponding EC50 value as the concentration of each test compound observed at the activity rate of 50%.
as §1, with “plasmid:” for “plasmid”, “384-well” for “96-well”, “2×10^6” for “70,000”, “cells/well. […]” for “cells/well.”

human CaSR [2] = molecular target: T2, human CaSR (Homo sapiens, UniProt P41180); assay: as above; format: cell-based; conditions: ratio to γ-Glu-Cys
T2 construct: expressed in transfected cells; host or cells: 293E cells (EBNA1-expression HEK293 cells, ATCC No. CRL-10852), transient transfection of hCaSR/pcDNA3.1
T2 sequence (P41180 20-1078 E1011Q): T1 sequence (P41180 20-1078 E1011Q)
Method: as §1, §2, §3, §4, §5
as §1, with “plasmid:” for “plasmid”, “384-well” for “96-well”, “2×10^6” for “70,000”, “cells/well. […]” for “cells/well.”

panelists [3] = assay: Quantitative organoleptic evaluation of kokumi-imparting activity in cow's milk; format: in vivo, human; conditions: for Intensity of Kokumi After Taste / Intensity of Kokumi Initial-Middle Taste: score scale -5 to +5, n=5
Method: The quantitative organoleptic evaluation test was carried out according to the following procedures: The intensity of the kokumi-imparting activity of the test compound was determined using a mixture obtained by adding, to the commercially available cow's milk (fat content: 3.6%), […] The pH value of the samples used was adjusted to that of the control free of any test compound (i.e., the pH value of the latter +0.2). […] The scoring was carried out using the linear-scale technique, in which each corresponding score was plotted on a straight line on which the scores equal to −5, 0 and +5 had been expressly specified. […] In this respect, the term “initial-middle taste” means the taste detected during the term ranging from 0 to 5 seconds after keeping each sample in each panelist's mouth and the term “after taste” means that detected thereafter.

panelists [4] = assay: Quantitative organoleptic evaluation of kokumi-imparting activity in umami/salty solution; format: in vivo, human; conditions: for Intensity of Kokumi After Taste / Intensity of Kokumi Initial-Middle Taste: score scale -5 to +5, n=5
Method: The scoring was carried out using the linear-scale technique, in which each corresponding score was plotted on a straight line on which the scores equal to −5, 0 and +5 had been expressly specified. In addition, persons selected as panelists in these evaluation tests were persons who had been engaged in the development of a seasoning over a cumulative period of at least a half year, and who could so judge that the difference between γ-Glu-Cys-Gly and γ-Glu-Val-Gly, each of which was added to a solution having umami and salty taste, was about 10 times (this ability was confirmed at regular intervals). In this respect, the term “initial-middle taste” means the taste detected from 0 to 5 seconds after placing and maintaining each sample in each panelist's mouth, and the term “after taste” means that detected thereafter.

panelists [5] = assay: Quantitative organoleptic evaluation of kokumi-imparting activity in dried-bonito extract; format: in vivo, human; conditions: for Intensity of Kokumi After Taste / Intensity of Kokumi Initial-Middle Taste: score scale -5 to +5, n=5
Method: The pH value of the samples used was adjusted to that of the control free of any test compound (i.e., the pH value of the latter +0.2). […] The scoring was carried out using the linear-scale technique, in which each corresponding score was plotted on a straight line on which the scores equal to −5, 0 and +5 had been expressly specified. […] In this respect, the term “initial-middle taste” means the taste detected from 0 to 5 seconds after placing and maintaining each sample in each panelist's mouth, and the term “after taste” means that detected thereafter.

[6] = 0.0001 g/dL in cow's milk (fat content 3.6%)
[7] = 0.0005 g/dL in cow's milk (fat content 3.6%)
[8] = 0.0001 g/dL in water with MSG 0.05, IMP 0.05, NaCl 0.5 g/dL
[9] = 0.0005 g/dL in water with MSG 0.05, IMP 0.05, NaCl 0.5 g/dL
[10] = 0.0001 g/dL in dried bonito extract 20.0 g/dL with common salt 0.5 g/dL
[11] = 0.0005 g/dL in dried bonito extract 20.0 g/dL with common salt 0.5 g/dL
[12] = 0.001 g/dL in cow's milk (fat content 3.6%)
[13] = 0.001 g/dL in water with MSG 0.05, IMP 0.05, NaCl 0.5 g/dL
[14] = 0.001 g/dL in dried bonito extract 20.0 g/dL with common salt 0.5 g/dL
[15] = 0.01 g/dL, reference standard for the scoring

N[C@@H](CCC(=O)N[C@@H](CS)C(=O)O)C(=O)O [γ-Glu-Cys, reference compound]
EC50 (human CaSR [1]): 460 nM

N[C@@H](CCC(=O)NC1CCCC(C(=O)O)NC1=O)C(=O)O (stereo partly drawn) [Compound 35]
EC50 (human CaSR [1]): 199 nM

N[C@@H](CCC(=O)N[C@H]1CSC[C@@H](C(=O)O)NC1=O)C(=O)O [Compound 8b]
CaSR agonist activity relative to that of γ-Glu-Cys (human CaSR [2]): about 9 times | EC50 (human CaSR [1]): 53 nM | Intensity of Kokumi After Taste (panelists [3]; [6]): 2.3 | Intensity of Kokumi Initial-Middle Taste (panelists [3]; [6]): 2.4 | kokumi-imparting activity (in words) (panelists [3]; 0.0001 to 0.0005 g/dL in cow's milk): showed its kokumi-imparting activity over the wide range of the foregoing added concentrations | Intensity of Kokumi After Taste (panelists [3]; [7]): 3.5 | Intensity of Kokumi Initial-Middle Taste (panelists [3]; [7]): 3.5 | Intensity of Kokumi After Taste (panelists [4]; [8]): 2.4 | Intensity of Kokumi Initial-Middle Taste (panelists [4]; [8]): 2.3 | kokumi-imparting activity (in words) (panelists [4]; 0.0001 to 0.0005 g/dL in water with MSG, IMP, NaCl): showed its kokumi-imparting activity over the wide range of the foregoing added concentrations | Intensity of Kokumi After Taste (panelists [4]; [9]): 3.5 | Intensity of Kokumi Initial-Middle Taste (panelists [4]; [9]): 3.4 | Intensity of Kokumi After Taste (panelists [5]; [10]): 2.5 | Intensity of Kokumi Initial-Middle Taste (panelists [5]; [10]): 2.3 | kokumi-imparting activity (in words) (panelists [5]; 0.0001 to 0.0005 g/dL in dried bonito extract solution): showed its kokumi-imparting activity over the wide range of the foregoing added concentrations | Intensity of Kokumi After Taste (panelists [5]; [11]): 3.7 | Intensity of Kokumi Initial-Middle Taste (panelists [5]; [11]): 3.5

N[C@@H](CCC(=O)N[C@@H]1CSC[C@@H](C(=O)O)NC1=O)C(=O)O [Compound 8c]
EC50 (human CaSR [1]): 20000 nM

N[C@@H](CCC(=O)N[C@H]1CSCCC(C(=O)O)NC1=O)C(=O)O (stereo partly drawn) [Compound 21]
EC50 (human CaSR [1]): 1850 nM

N[C@@H](CCC(=O)N[C@H]1CSC[C@H](C(=O)O)NC1=O)C(=O)O [Compound 8a]
EC50 (human CaSR [1]): 14300 nM

N[C@@H](CCC(=O)N[C@@H]1CSC[C@H](C(=O)O)NC1=O)C(=O)O [Compound 8d]
EC50 (human CaSR [1]): 1950 nM

CC(C)[C@H](NC(=O)CC[C@H](N)C(=O)O)C(=O)NCC(=O)O [γ-Glu-Val-Gly, reference compound]
Comments for the Evaluation (panelists [3]; 0.001 g/dL in cow's milk): The thickness feeling of the cow's | Intensity of Kokumi After Taste (panelists [3]; [12]): 3.0 | Intensity of Kokumi Initial-Middle Taste (panelists [3]; [12]): 2.5 | Intensity of Kokumi After Taste (panelists [4]; [13]): 3.0 | Intensity of Kokumi Initial-Middle Taste (panelists [4]; [13]): 2.5 | Comments for the Evaluation (panelists [4]; 0.001 g/dL in water with MSG, IMP, NaCl): The kokumi is strengthened mainly | Intensity of Kokumi After Taste (panelists [5]; [14]): 3.0 | Intensity of Kokumi Initial-Middle Taste (panelists [5]; [14]): 2.5 | Comments for the Evaluation (panelists [5]; 0.001 g/dL in dried bonito extract solution): The fish meat taste of the dried

N[C@@H](CCC(=O)N[C@@H](CS)C(=O)NCC(=O)O)C(=O)O [γ-Glu-Cys-Gly, reference compound]
intensity of the kokumi, after taste (panelists [3]; [15]): 3.0 | intensity of the kokumi, initial-middle taste (panelists [3]; [15]): 3.0 | intensity of the kokumi, after taste (panelists [4]; [15]): 3.0 | intensity of the kokumi, initial-middle taste (panelists [4]; [15]): 3.0 | intensity of the kokumi, after taste (panelists [5]; [15]): 3.0 | intensity of the kokumi, initial-middle taste (panelists [5]; [15]): 3.0

C[C@@H]1SC[C@H](NC(=O)CC[C@H](N)C(=O)O)C(=O)N[C@@H]1C(=O)O [Compound 29]
EC50 (human CaSR [1]): 580 nM
